# Earlier results, collected in patent publication US20260263382A1, “TRANSDERMAL PATCH COMPRISING RASAGILINE MESYLATE AND PREPARATION METHOD THEREFOR” (priority 2023, published 2026).
# Structures can show the parent of a compound that is named as a salt. Where two headings read alike, the source gives them in different places.
# Legend:
# [1] = oral preparations
# [2] = oral administration at 20 mg/d for 2 weeks
# [3] = carried in polyacrylate or silicone pressure-sensitive adhesives or polyvinyl alcohol, free base under weakly alkaline conditions
SMILES,Bioavailability [1] [%],Adverse reaction [2],Main drug content ([3]; listed as rasagiline free base),Main drug content [3]
C#CCN[C@@H]1CCc2ccccc21 [Rasagiline],36,no serious adverse reaction,"declines rapidly, even with complete degradation",–
C#CCN[C@@H]1CCc2ccccc21 [rasagiline mesylate],–,–,–,no change
